`CC(C)(C)OC(=O)N1CCC[C@H]1C(=O)Nc1n[nH]c(-c2ccc(F)cc2)c1-c1ccncc1` [Example 88, 3-(N′-Carbo-t-butoxy-L-prolylamino)-5-(4-fluorophenyl)-4-(4-pyridyl)pyrazole] showed a melting point of 124.6 to 125.7 °C. For `Cn1cccc1CC(=O)Nc1c(-c2ccncc2)c(-c2ccc(F)cc2)nn1C` [Example 79, 3-(4-Fluorophenyl)-1-methyl-5-(1-methylpyrrol-2-ylacetylamino)-4-(4-pyridyl)pyrazole], the melting point was 165.1 to 168.1 °C. `O=S(=O)(Nc1n[nH]c(-c2ccc(F)cc2)c1-c1ccncc1)c1ccccc1` [Example 139, 5-(4-fluorophenyl)-3-phenylsulfonylamino-4-(4-pyridyl)pyrazole] gave a melting point of 181 to 183.3 °C. `CN(C(=O)Cc1ccccc1)c1nn(C)c(-c2ccc(F)cc2)c1-c1ccncc1` [Example 119, 5-(4-fluorophenyl)-1-methyl-3-(N-methyl-N-phenylacetylamino)-4-(4-pyridyl)pyrazole] gave a melting point of 169.8 to 171.1 °C. With `CCn1nc(-c2ccc(F)cc2)c(-c2ccncc2)c1NC(=O)Cc1ccccc1Cl` [Example 98, 5-(2-Chlorophenylacetylamino)-1-ethyl-3-(4-fluorophenyl)-4-(4-pyridyl)pyrazole] the melting point was 226 to 232.3 °C. `Cn1nc(-c2ccc(F)cc2)c(-c2ccncc2)c1NC(=O)Cc1ccccc1Cl` [Example 56, 5-(2-Chlorophenylacetylamino)-3-(4-fluorophenyl)-1-methyl-4-(4-pyridyl)pyrazole] showed a melting point of 215.9 to 217.8 °C. `O=C(Cc1ccccc1)Nc1n[nH]c(-c2ccc(F)cc2)c1-c1ccncc1` [Example 1, 5-(4-fluorophenyl)-3-phenylacetylamino-4-(4-pyridyl)pyrazole] gave a melting point of 289.2 to 290.4 °C. `Cn1nc(-c2ccc(F)cc2)c(-c2ccncc2)c1NC(=O)Cc1ccc(Cl)c(Cl)c1` [Example 37, 5-(3,4-Dichlorophenylacetylamino)-3-(4-fluorophenyl)-1-methyl-4-(4-pyridyl)pyrazole] showed a melting point of 205.1 to 207 °C. Work on `CN(C(=O)OC(C)(C)C)[C@@H](Cc1ccccc1)C(=O)Nc1n[nH]c(-c2ccc(F)cc2)c1-c1ccncc1` [Example 89, 3-(N′-Carbo-t-butoxy-N′-methyl-L-Phenylalanylamino)-5-(4-fluorophenyl)-4-(4-pyridyl)pyrazole] yielded a melting point of 232.4 to 233.1 °C. In the case of `Cn1nc(-c2ccc(F)cc2)c(-c2ccncc2)c1NC(=O)Cc1ccc(F)cc1` [Example 62, 3-(4-Fluorophenyl)-5-(4-fluorophenylacetylamino)-1-methyl-4-(4-pyridyl)pyrazole], the melting point is reported as 217.3 to 219.7 °C. `O=C(CC1CCCCC1)Nc1n[nH]c(-c2ccc(F)cc2)c1-c1ccncc1` [Example 23, 3-cyclohexylacetylamino-5-(4-fluorophenyl)-4-(4-pyridyl)pyrazole] showed a melting point of 296.3 to 299.9 °C. Compound `Cn1nc(-c2ccc(F)c(Cl)c2)c(-c2ccncc2)c1NC(=O)Cc1ccccc1` [Example 113, 3-(3-Chloro-4-fluorophenyl)-1-methyl-5-phenylacetylamino-4-(4-pyridyl)pyrazole] has a melting point of 194.2 to 194.7 °C. In the case of `O=C(Cc1cccc(Cl)c1)Nc1n[nH]c(-c2ccc(F)cc2)c1-c1ccncc1` [Example 25, 3-(3-Chlorophenylacetylamino)-5-(4-fluorophenyl)-4-(4-pyridyl)pyrazole], the melting point is reported as 249.7 to 250.8 °C. For `CN(C(=O)Cc1ccccc1Cl)c1c(-c2ccncc2)c(-c2ccc(F)cc2)nn1-c1ccccc1` [Example 130, 3-(4-Fluorophenyl)-5-[N-methyl-N-(2-chlorophenylacetyl)amino]-1-phenyl-4-(4-pyridyl)pyrazole], the melting point was 203.8 to 205.6 °C. Work on `Cn1nc(-c2ccc(F)cc2)c(-c2ccncc2)c1NC(=O)Cc1ccccc1[N+](=O)[O-]` [Example 65, 3-(4-Fluorophenyl)-1-methyl-5-(2-nitrophenylacetylamino)-4-(4-pyridyl)pyrazole] yielded a melting point of 240.9 to 242.4 °C. With `O=C(Cc1ccc([N+](=O)[O-])cc1)Nc1n[nH]c(-c2ccc(F)cc2)c1-c1ccncc1` [Example 27, 5-(4-Fluorophenyl)-3-(4-nitrophenylacetylamino)-4-(4-pyridyl)pyrazole] the melting point was 299.3 to 302.3 °C. With `COc1ccccc1CC(=O)Nc1c(-c2ccncc2)c(-c2ccc(F)cc2)nn1C` [Example 69, 3-(4-Fluorophenyl)-5-(2-methoxyphenylacetylamino)-1-methyl-4-(4-pyridyl)pyrazole] the melting point was 206.8 to 209.2 °C. `CC(C)(C)C(=O)Nc1n[nH]c(-c2ccc(F)cc2)c1-c1ccncc1` [Example 21, 5-(4-Fluorophenyl)-4-(4-pyridyl)-3-pivaloylaminopyrazole] gave a melting point of 217.9 to 220.6 °C. `Cc1ccc(C)c(CC(=O)Nc2c(-c3ccncc3)c(-c3ccc(F)cc3)nn2C)c1` [Example 51, 5-(2,5-Dimethylphenylacetylanino)-3-(4-fluorophenyl)-1-methyl-4-(4-pyridyl)pyrazole] gave a melting point of 179.9 to 185.1 °C. With `Cn1nc(-c2ccc(F)c(Cl)c2)c(-c2ccncc2)c1NC(=O)Cc1c(F)c(F)c(F)c(F)c1F` [Example 114, 3-(3-Chloro-4-fluorophenyl)-1-methyl-5-(2,3,4,5,6-pentafluorophenylacetylamino)4-(4-pyridyl)pyrazole] the melting point was 194.7 to 196 °C. `O=C(Nc1n[nH]c(-c2ccc(F)cc2)c1-c1ccncc1)C(c1ccccc1)c1ccccc1` [Example 32, 3-Diphenylacetylamino-5-(4-fluorophenyl)-4-(4-pyridyl)pyrazole] gave a melting point of 266.5 to 269.2 °C.

— US6511997B1, “Aminopyrazole derivatives” (Teikoku Hormone Mfg. Co., Ltd., priority 1998, dated 2003)
